In patent US20150258020A1, “CHEWABLE TABLETS COMPRISING LEVONORGESTREL” (priority 2014, published 2015):

Conditions: particle size by volume, laser light diffraction, dry dispersion
Source text: Particle size determination of Levonorgestrel
Equipment • Diffractometer of laser light, Mastersizer 3000 or equivalent • Micro analytical balance or semimicro
Weigh approximately 0.2-0.3g of the drug substance, and introduce to the dry accessory.
Dispersion Unit: MAZ3500 and cell (AD01)
Refraction index: 1.5/1.5 (red light/blue light)
Distribution Format: • Single mode • Enhanced sensitivity • Fine powder (activate)
Background run time: 10 s
Filter obscuration: 0.5-6%
Sampler settings: • Vibration feed rate: 50% • Dispersive air pressure: 2.5 bar

D10: 0.2 μm | D50: 1.0 μm | D90: 1.1 μm
Compound: C#C[C@]1(O)CC[C@H]2[C@@H]3CCC4=CC(=O)CC[C@@H]4[C@H]3CC[C@@]21CC [Ultra-micronized levonorgestel, Levonorgestrel]
